# Measured values from ChEMBL document CHEMBL1201862, “PubChem BioAssay data set” (2004).
# Calls of active or inactive are those of the source.
# Legend:
# [1] = molecular target: T1, Voltage-dependent T-type calcium channel subunit alpha-1H (Homo sapiens, UniProt O95180); experiment: Inhibitors of T-Type Calcium Channels. [Related pubchem assays (depositor defined):AID449739, AID463087, AID489005, AID493041, AID504579, AID504584, AID504619, AID504628]; type: functional
# [2] = molecular target: T2, Heat shock factor protein 1 (Mus musculus, UniProt P38532); experiment: decrease of HSF1-responsive luciferase luminescence – cell-based, NIH3T3, dose retest, confirmation (AID 2382); type: functional;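 note: NIH3T3 fibroblasts with HSF1-driven luciferase reporter stressed by proteasome inhibitor MG132; luminescence from HSF1-driven luciferase expression after 8 hours of MG132 stress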
# T2 sequence (P38532 whole entry): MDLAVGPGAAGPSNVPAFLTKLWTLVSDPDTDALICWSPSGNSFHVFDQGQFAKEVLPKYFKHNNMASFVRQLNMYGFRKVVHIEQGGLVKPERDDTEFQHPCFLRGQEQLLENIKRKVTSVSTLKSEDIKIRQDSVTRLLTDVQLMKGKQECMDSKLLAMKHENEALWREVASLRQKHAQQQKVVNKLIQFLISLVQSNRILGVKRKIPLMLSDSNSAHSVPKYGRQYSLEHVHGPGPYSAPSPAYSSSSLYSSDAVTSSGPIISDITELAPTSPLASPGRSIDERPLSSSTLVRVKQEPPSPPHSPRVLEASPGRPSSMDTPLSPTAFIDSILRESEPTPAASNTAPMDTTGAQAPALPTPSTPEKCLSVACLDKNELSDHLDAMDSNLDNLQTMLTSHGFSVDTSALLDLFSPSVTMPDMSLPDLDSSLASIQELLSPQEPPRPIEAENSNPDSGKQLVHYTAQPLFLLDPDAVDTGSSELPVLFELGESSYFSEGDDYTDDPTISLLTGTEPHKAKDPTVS
# [3] = molecular target: T1, Voltage-dependent T-type calcium channel subunit alpha-1H; type: functional
# [4] = molecular target: T3, Calpain-2 catalytic subunit (Sus scrofa, UniProt P43367); experiment: m-calpain protease blockers, concentration series – biochemical, fluorogenic peptide substrate, dose response (AID 1420); type: functional
# T3 sequence (P43367 whole entry): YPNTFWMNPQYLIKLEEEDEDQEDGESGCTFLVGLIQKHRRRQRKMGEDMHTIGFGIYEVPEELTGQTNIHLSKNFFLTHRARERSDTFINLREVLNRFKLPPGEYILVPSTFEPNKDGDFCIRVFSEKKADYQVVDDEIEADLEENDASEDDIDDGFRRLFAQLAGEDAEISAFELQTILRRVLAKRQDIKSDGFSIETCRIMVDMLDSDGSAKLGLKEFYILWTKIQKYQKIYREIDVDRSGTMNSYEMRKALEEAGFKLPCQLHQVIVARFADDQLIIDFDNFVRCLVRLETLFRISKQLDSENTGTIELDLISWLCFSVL
# [5] = molecular target: T4, Kappa-type opioid receptor (Homo sapiens, UniProt P41145); type: functional
# T4 sequence (P41145 whole entry): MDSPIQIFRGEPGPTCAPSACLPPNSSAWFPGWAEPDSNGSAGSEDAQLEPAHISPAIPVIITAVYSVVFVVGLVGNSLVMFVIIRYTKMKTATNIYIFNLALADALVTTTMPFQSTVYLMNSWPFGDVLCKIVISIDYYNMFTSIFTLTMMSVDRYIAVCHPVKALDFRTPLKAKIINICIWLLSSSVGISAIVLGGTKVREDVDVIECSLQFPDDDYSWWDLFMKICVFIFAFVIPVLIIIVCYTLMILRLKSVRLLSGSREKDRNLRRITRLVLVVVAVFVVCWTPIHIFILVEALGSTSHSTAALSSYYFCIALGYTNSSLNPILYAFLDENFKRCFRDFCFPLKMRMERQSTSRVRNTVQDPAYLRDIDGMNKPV
# [6] = molecular target: Beta-galactosidase (Escherichia coli, UniProt Q8VNN2); type: functional
# [7] = molecular target: T4, Kappa-type opioid receptor; type: functional; remark: listed apart in the source
# [8] = molecular target: Lysosomal acid glucosylceramidase (Homo sapiens, UniProt P04062); experiment: Dose response cell-based high throughput screening assay to identify enhancers of beta-glucosidase activity. [Related pubchem assays: 784 ]; type: functional
# Sequence of Lysosomal acid glucosylceramidase (P04062 whole entry): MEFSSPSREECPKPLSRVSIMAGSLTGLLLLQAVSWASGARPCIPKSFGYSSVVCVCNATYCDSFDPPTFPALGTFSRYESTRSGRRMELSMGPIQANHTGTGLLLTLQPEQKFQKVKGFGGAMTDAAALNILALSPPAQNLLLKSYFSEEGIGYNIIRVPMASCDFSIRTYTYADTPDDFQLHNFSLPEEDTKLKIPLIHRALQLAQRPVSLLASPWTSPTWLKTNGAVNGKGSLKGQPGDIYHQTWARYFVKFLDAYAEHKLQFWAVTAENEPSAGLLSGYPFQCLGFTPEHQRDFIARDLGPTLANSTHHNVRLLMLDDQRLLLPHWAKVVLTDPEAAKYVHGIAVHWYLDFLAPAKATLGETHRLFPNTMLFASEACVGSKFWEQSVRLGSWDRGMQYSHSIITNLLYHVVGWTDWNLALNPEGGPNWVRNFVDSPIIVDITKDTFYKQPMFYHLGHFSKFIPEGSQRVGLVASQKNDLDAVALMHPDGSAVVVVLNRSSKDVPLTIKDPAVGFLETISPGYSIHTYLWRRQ
# [9] = molecular target: T5, Orexin receptor type 2 (Homo sapiens, UniProt O43614); experiment: Counterscreen assay for antagonists of the orexin 1 receptor (OX1R; HCRTR1): Homogeneous Time Resolved Fluorescence (HTRF)-based cell-based dose response assay for antagonists of the orexin 2 receptor (OX2R; HCRTR2), run by assay provider.; type: functional
# T5 sequence (O43614 whole entry): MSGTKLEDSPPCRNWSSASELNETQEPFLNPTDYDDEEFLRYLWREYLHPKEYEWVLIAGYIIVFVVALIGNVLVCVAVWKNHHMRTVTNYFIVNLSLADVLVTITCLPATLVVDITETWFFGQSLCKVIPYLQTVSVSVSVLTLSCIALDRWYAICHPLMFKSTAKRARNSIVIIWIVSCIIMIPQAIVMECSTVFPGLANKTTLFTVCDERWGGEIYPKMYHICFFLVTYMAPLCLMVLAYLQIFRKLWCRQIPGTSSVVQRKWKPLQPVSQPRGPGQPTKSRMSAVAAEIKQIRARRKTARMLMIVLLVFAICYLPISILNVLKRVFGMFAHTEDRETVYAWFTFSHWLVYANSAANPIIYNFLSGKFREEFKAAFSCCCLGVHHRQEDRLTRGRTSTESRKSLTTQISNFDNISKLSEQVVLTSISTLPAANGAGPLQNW
# [10] = molecular target: T6, Orexin/Hypocretin receptor type 1 (Homo sapiens, UniProt O43613); experiment: Homogeneous Time Resolved Fluorescence (HTRF)-based cell-based high throughput dose response assay for antagonists of the orexin 1 receptor (OX1R; HCRTR1). [Related pubchem assays (depositor defined):AID434989, AID435008, AID463079, AID485270, AID492963, AID492964, AID492965, AID493232, AID504717, AID504718]; type: functional
# T6 sequence (O43613 whole entry): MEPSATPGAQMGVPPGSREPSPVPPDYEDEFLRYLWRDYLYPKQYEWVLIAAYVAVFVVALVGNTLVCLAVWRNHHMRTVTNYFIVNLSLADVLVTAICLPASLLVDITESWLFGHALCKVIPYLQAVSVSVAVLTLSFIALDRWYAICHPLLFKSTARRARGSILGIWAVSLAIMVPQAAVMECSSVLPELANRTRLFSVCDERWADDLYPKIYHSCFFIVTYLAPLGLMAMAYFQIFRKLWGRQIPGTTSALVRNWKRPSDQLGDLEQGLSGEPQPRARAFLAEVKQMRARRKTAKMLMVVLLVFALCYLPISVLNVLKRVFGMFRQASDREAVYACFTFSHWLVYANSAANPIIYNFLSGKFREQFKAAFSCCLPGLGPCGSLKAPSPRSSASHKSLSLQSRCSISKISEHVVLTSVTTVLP
# [11] = test system: CHO-K1; experiment: (§1) Counterscreen for antagonists of the orexin 1 receptor (OX1R; HCRTR1): Homogeneous time resolved fluorescence (HTRF)-based cell-based dose response assay to identify antagonists of the parental CHO-K1 cell line. [Related pubchem assays (depositor defined):AID434989, AID435008, AID463079, AID485270, AID492963, AID492964, AID492965, AID493232, AID504699, AID504701]; type: functional; details: Cricetulus griseus
# [12] = as §1, with “Fluorescence-based” for “Homogeneous time resolved fluorescence (HTRF)-based”, “cell-based high throughput” for “cell-based”, “CHO” for “CHO-K1”; type: functional
# [13] = molecular target: T6, Orexin/Hypocretin receptor type 1; experiment: Fluorescence-based cell-based high throughput dose response assay for antagonists of the orexin 1 receptor (OX1R; HCRTR1). [Related pubchem assays (depositor defined):AID434989, AID435008, AID463079, AID485270, AID492963, AID492964, AID492965, AID493232, AID504717, AID504718]; type: functional
# [14] = A Cell Based Secondary Assay To Explore Cytotoxicity of Compounds that Sensitize Mycobacterium Tuberculosis to Beta-Lactam Antibiotics.; type: functional
# [15] = molecular target: T5, Orexin receptor type 2; experiment: Counterscreen assay for antagonists of the orexin 1 receptor (OX1R; HCRTR1): Fluorescence-based cell-based dose response assay for antagonists of the orexin 2 receptor (OX2R; HCRTR2), run by assay provider.; type: functional
# [16] = test system: Vero; experiment: host cell viability loss, Vero E6 – synthesized analogs, cytotoxicity control for West Nile virus antiviral project, SAR follow-up (AID 2244); type: functional; details: Chlorocebus sabaeus
# [17] = test system: Vero; experiment: Vero cell viability after compound exposure – synthesized analogs, set II, cytotoxicity control for West Nile virus antiviral project, SAR follow-up (AID 2402); type: functional; details: Chlorocebus sabaeus
# [18] = molecular target: Cytochrome P450 2C19 (Homo sapiens, UniProt P33261); experiment: Cytochrome panel assay with activity outcomes. Panel member name: p450-cyp2c19 Compounds with AC50 equal or less than 10 uM are considered active; type: functional; details: read-out: AC50
# Sequence of Cytochrome P450 2C19 (P33261 whole entry): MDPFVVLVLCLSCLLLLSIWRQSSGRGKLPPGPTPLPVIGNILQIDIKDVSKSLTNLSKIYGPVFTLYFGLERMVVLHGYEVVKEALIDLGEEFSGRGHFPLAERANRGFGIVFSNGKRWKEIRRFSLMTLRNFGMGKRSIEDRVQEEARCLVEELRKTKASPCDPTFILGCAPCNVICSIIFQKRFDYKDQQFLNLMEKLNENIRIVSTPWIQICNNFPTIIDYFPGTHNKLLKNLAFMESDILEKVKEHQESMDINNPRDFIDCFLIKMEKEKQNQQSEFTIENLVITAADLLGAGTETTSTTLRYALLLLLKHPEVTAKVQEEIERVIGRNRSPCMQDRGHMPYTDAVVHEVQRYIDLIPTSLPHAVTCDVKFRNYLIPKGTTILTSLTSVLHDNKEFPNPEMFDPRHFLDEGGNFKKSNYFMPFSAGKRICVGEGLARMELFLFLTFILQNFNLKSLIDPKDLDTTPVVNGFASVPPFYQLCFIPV
# [19] = molecular target: Cytochrome P450 2C9 (Homo sapiens, UniProt P11712)
# Sequence of Cytochrome P450 2C9 (P11712 whole entry): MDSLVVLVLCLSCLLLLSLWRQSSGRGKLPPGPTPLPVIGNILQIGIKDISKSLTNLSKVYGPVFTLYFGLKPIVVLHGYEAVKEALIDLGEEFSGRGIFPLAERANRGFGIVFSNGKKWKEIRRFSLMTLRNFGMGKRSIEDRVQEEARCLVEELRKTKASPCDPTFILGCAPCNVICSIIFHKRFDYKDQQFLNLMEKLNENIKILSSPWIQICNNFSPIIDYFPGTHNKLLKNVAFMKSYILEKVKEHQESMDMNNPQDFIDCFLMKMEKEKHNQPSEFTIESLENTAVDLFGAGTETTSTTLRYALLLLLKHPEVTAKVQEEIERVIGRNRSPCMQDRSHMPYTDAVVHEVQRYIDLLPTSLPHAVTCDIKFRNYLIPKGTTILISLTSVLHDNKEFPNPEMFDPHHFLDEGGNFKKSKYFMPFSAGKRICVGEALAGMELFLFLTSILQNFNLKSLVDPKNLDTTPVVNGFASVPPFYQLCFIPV
# [20] = molecular target: Procathepsin L (Homo sapiens, UniProt P07711)
# [21] = molecular target: Aspartyl aminopeptidase (Plasmodium falciparum 3D7, UniProt Q8I2J3)
# Sequence of Aspartyl aminopeptidase (Q8I2J3 whole entry): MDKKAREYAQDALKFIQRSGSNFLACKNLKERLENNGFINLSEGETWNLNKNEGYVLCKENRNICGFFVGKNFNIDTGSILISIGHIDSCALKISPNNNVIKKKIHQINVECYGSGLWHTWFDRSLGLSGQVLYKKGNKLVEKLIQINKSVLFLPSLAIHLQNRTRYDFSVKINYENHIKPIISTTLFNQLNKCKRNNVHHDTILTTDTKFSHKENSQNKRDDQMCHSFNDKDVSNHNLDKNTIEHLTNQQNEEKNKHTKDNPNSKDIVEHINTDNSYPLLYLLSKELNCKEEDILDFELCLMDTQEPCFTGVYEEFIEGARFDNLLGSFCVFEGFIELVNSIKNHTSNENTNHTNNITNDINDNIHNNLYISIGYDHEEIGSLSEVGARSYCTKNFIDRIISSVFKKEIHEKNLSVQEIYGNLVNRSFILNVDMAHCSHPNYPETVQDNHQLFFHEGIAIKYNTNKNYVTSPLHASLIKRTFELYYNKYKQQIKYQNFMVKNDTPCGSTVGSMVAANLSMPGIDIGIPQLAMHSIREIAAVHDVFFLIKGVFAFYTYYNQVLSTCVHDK
# [22] = molecular target: T7, Cytochrome P450 1A2 (Homo sapiens, UniProt P05177);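 note: PubChem cytochrome P450 panel assay, CYP1A2 panel member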
# T7 sequence (P05177 whole entry): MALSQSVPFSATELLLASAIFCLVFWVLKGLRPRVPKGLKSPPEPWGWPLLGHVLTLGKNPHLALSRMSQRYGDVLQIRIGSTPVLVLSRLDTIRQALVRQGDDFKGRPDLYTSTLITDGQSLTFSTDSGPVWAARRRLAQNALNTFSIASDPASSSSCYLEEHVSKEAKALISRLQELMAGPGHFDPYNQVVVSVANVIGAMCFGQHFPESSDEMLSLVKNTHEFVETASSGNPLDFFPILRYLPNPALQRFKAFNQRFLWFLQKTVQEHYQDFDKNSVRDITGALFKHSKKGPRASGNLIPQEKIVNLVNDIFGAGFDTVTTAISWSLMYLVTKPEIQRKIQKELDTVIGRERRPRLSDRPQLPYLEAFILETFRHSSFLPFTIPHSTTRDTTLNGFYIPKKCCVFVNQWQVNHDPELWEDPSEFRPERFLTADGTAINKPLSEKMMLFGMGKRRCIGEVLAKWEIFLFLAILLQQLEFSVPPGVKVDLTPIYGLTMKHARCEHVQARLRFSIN
# [23] = molecular target: Cytochrome P450 2D6 (Homo sapiens, UniProt P10635);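 note: CYP2D6 member of a cytochrome P450 panel assay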
# [24] = molecular target: T8, Alkaline phosphatase, tissue-nonspecific isozyme (Homo sapiens, UniProt P05186)
# T8 sequence (P05186 whole entry): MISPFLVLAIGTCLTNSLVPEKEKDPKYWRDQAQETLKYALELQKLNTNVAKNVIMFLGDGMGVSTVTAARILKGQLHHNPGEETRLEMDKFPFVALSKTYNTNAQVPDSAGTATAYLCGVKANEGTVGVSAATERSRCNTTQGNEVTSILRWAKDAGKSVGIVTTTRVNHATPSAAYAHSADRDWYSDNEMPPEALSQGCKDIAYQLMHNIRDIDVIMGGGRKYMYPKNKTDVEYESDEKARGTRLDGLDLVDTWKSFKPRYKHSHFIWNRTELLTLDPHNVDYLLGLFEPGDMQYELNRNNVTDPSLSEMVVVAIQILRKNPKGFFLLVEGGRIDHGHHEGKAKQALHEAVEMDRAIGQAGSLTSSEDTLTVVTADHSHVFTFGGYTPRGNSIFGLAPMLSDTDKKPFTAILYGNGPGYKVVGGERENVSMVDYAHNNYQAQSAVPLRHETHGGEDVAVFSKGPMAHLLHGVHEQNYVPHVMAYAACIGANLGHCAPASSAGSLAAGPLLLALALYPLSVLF
# [25] = molecular target: Peroxisome proliferator-activated receptor gamma/Nuclear receptor coactivator 2 (Homo sapiens, UniProt P37231); type: functional;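 note: agonist potency for raising coactivator recruitment to the receptor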
# [26] = molecular target: Peroxisome proliferator-activated receptor gamma/Nuclear receptor coactivator 1 (Homo sapiens, UniProt P37231); type: functional;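 note: agonist potency as compounds enhance coactivator SRC-1 recruitment to PPARgamma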
# [27] = molecular target: Peroxisome proliferator-activated receptor gamma/Nuclear receptor coactivator 3 (Homo sapiens, UniProt P37231); type: functional;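 note: agonist potency for raising coactivator recruitment to the receptor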
# [28] = molecular target: Intestinal-type alkaline phosphatase (Homo sapiens, UniProt P09923); experiment: Dose Response confirmation of uHTS hits from a small molecule inhibitors of human intestinal alkaline phosphatase via a luminescent assay. [Related pubchem assays (depositor defined):AID2544, AID2574]; type: functional
# T1 sequence (O95180 whole entry): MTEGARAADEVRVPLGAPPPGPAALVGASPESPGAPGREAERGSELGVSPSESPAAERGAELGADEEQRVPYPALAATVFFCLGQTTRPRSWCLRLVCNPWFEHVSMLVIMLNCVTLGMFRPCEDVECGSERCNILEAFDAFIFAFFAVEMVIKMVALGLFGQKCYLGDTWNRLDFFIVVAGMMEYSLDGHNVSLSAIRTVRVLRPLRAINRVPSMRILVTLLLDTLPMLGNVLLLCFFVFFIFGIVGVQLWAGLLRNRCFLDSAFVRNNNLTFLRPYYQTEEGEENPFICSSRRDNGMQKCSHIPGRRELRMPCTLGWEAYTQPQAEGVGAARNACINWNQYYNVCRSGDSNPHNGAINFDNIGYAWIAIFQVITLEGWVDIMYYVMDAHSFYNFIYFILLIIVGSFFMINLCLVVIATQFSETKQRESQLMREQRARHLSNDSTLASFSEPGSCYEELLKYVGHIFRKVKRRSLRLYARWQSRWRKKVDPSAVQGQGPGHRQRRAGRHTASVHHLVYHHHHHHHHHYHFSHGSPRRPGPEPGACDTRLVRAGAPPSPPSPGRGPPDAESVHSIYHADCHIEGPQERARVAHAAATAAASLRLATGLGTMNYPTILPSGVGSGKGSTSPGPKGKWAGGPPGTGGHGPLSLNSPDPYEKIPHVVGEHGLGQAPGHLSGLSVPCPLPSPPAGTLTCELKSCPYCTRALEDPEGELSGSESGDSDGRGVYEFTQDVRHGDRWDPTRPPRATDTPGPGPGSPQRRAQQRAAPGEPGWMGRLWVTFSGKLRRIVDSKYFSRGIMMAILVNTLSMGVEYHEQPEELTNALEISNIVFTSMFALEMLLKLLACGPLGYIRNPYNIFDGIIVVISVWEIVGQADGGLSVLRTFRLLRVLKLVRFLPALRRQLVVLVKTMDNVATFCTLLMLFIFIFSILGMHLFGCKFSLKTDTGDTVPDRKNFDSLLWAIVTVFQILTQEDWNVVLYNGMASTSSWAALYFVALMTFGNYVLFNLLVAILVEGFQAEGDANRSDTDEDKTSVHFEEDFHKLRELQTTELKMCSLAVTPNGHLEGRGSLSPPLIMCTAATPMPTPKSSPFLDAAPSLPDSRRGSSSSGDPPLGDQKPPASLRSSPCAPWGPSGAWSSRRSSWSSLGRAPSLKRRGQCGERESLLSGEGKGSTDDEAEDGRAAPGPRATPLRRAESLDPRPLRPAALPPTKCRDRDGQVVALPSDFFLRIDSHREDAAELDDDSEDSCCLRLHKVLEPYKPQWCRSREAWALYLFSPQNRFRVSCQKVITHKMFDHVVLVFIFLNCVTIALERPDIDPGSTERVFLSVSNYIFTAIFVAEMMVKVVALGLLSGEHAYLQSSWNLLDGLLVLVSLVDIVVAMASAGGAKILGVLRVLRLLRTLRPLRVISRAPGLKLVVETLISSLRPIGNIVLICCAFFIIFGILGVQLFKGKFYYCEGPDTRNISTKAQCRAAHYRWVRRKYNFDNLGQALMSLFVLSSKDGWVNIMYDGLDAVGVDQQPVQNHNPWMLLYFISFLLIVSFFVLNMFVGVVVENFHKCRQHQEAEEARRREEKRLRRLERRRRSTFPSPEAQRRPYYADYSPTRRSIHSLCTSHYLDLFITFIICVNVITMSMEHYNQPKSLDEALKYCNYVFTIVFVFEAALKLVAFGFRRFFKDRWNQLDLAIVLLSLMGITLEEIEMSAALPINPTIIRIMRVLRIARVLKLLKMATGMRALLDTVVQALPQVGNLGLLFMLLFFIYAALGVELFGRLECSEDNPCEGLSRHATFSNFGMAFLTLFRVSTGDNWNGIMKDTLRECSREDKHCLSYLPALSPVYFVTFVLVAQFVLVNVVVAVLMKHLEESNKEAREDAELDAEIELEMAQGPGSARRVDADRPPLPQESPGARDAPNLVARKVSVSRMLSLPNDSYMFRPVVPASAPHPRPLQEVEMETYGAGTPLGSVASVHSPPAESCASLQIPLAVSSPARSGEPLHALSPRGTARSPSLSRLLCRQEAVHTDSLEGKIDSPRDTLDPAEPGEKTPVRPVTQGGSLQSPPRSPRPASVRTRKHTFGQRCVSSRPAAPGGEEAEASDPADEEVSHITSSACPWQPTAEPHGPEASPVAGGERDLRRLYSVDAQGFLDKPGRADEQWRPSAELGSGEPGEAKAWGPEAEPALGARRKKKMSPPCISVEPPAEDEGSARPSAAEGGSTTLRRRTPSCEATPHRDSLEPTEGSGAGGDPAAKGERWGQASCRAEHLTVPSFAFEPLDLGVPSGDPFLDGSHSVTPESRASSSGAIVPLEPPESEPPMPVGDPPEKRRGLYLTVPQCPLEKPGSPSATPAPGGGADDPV
structure (smiles),measurement,setting,value
O=C(CCCCCCN1C(=O)c2ccccc2C1=O)N1CCC(c2ccccc2)C1 (configuration not stated),EC50,[1],1.81 µM (active)
same,EC50,[2],> 195 µM (not active)
same,EC50,[3],0.624 µM (active)
same,IC50,[4],7.71 µM (active)
O=C(N/N=C/c1ccccn1)c1ccc([N+](=O)[O-])cc1,IC50,[5],14.7 µM (active)
same,EC50,[6],> 31.5 µM (inactive)
same,EC50,[2],> 195 µM (not active)
same,IC50,[7],> 32 µM
COC(=O)CN1C(=O)C2(OCCCO2)c2cc(Br)ccc21,EC50,[8],> 10 µM (not active)
Cc1ccc(Cl)cc1N1CCN(C(=O)C2(S(=O)(=O)c3ccc(Cl)cc3)CC2)CC1,EC50,[1],5.26 µM (active)
same,EC50,[3],0.928 µM (active)
CCn1c2ccccc2c2cc(NC(=O)c3cccc(OC)c3OC)ccc21,IC50,[9],> 50 µM (inactive)
same,IC50,[10],1.7 µM (active)
same,IC50,[11],> 66.2 µM (inactive)
same,IC50,[12],> 49.8 µM (inactive)
same,IC50,[13],3.08 µM (active)
same,CC50,[14],> 40 µM (active)
same,IC50,[15],> 88.8 µM (inactive)
COc1ccc(-c2csc(N(Cc3ccccc3)C(=O)c3ccccc3Cl)n2)cc1,CC50,[16],> 40 µM (active)
same,CC50,[17],> 100 µM (active)
COc1ccc2c(c1)-c1ccccc1S(=O)(=O)N2C(C)=O,AC50,[18],25.1 µM (inconclusive)
same,AC50,[19],12.6 µM (inconclusive)
same,EC50,[8],> 50 µM (not active)
Cc1c(Cl)cccc1NC(=O)Nn1cnnc1,IC50,[20],> 59.6 µM (not active)
same,IC50,[21],1.87 µM (active)
COc1ccc2nc(C)cc(SCC(=O)NNC(=O)COc3ccccc3)c2c1,AC50,[22],10 µM (inconclusive)
same,AC50,[23],10 µM (inconclusive)
same,EC50,[24],79.5 µM (not active)
same,AC50,[18],3.55 µM (inconclusive)
same,AC50,[19],10 µM (inconclusive)
COc1ccc2nc(C)cc(SCC(=O)Nc3c(C)cccc3C)c2c1,EC50,[25],> 79.4 µM (not active)
same,EC50,[24],> 100 µM (not active)
same,EC50,[26],> 79.4 µM (not active)
same,EC50,[27],> 79.4 µM (not active)
COc1cccc(C(=O)NC(=S)Nn2cnnc2)c1OC,IC50,[20],> 59.6 µM (not active)
same,IC50,[21],2.08 µM (active)
CC(/C=N/NC(=O)CCn1nnc2ccccc21)=C\c1ccccc1,IC50,[28],> 100 µM (inactive)
